Results published in article PMC7906094 (Cancer chemotherapy and pharmacology, 2020).

How the values were obtained:
[1] = tested on: primary human hepatocytes; conditions: human hepatocytes, tenofovir 0.5 μM, emtricitabine 7.2 μM; for impact of co-incubation on triapine half-life: triapine 6 μM
CYP3A4 [2] = conditions: cited from earlier work
CYP3A4 [3] = conditions: cited from earlier work; remark: listed apart in the source
CYP3A5 = conditions: cited from earlier work
[4] = human, primary human hepatocytes
[5] = cited from earlier work
CYP = assay: Triapine metabolism in human liver microsomes, pH 7.4; format: in vitro ADME; conditions: human, human liver microsomes fortified with NADPH, pH 7.4
[6] = tested on: human liver microsomes (CYP); assay: as above; format: in vitro ADME
[7] = tested on: human liver microsomes (FMO); assay: Triapine metabolism in human liver microsomes, pH 8.4; format: in vitro ADME
[8] = tested on: primary human hepatocytes; assay: Triapine metabolism in human hepatocytes with enzyme inhibitors; format: in vitro ADME; conditions: in the presence of non-isoform specific CYP inhibitor N-benzyl imidazole
[9] = tested on: human liver microsomal glucuronyltransferases; assay: Triapine metabolism by glucuronosyltransferases in human liver microsomes; format: in vitro ADME; conditions: human liver microsomes + UDPGA, 120-minute incubation
CYP2C19 = CYP2C19 (Homo sapiens, UniProt P33261); format: in vitro ADME; conditions: triapine 6 μM, human liver microsomes
Chain of CYP2C19 (P33261 whole entry): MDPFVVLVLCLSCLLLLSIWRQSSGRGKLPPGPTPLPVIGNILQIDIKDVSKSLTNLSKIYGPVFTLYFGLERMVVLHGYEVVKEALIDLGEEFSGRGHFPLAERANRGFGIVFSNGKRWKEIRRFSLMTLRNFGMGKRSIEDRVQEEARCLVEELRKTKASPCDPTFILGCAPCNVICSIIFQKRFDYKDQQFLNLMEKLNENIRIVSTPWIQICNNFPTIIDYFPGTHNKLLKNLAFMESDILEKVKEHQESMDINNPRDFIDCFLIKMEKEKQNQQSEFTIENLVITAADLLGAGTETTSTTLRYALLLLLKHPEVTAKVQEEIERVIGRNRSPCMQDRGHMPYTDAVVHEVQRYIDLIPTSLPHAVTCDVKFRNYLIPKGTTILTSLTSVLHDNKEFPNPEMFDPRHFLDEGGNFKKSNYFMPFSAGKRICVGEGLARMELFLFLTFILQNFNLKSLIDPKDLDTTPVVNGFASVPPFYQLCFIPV

[10] = tested on: monoamine oxidases (MAO)-A/B; assay: Triapine metabolism in human liver mitochondria; format: in vitro ADME; conditions: presence or absence of MAO-A and B inhibitors
[11] = tested on: aldehyde oxidase (AO) and xanthine oxidase (XO); assay: Triapine metabolism in human liver cytosol with high AO/XO activity; format: in vitro ADME; conditions: 90-minute incubation, human liver cytosol enriched in AO/XO, presence or absence of raloxifene and allopurinol
CYP2C9 = conditions: microsomes; cited from earlier work
CYP3A4 [12] = conditions: cited from earlier work; remark: listed apart in the source

C[C@H](Cn1cnc2c(N)ncnc21)OCP(=O)(O)O [tenofovir]
impact of co-incubation on %triapine remaining after 48 hours [1]: not significantly different
impact of co-incubation on triapine AUC0–48h [1]: not significantly different
impact of co-incubation on triapine half-life [1]: not impacted

C=C[C@H]1C[N@@]2CC[C@H]1C[C@@H]2[C@@H](O)c1ccnc2ccc(OC)cc12 [quinidine]
increase of CYP3A4 Vmax for R-warfarin 10-hydroxylation (CYP3A4 [2]): 5 fold
increase of CYP3A4 Vmax for S-warfarin 4'-hydroxylation (CYP3A4 [2]): 2.5 fold
increase of CYP3A4 mediated 5-, 5'-, and 10-hydroxylation of diclofenac, piroxicam and R-warfarin (CYP3A4 [2]): 5–7 fold

CNC(=O)c1cc(Oc2ccc(NC(=O)Nc3ccc(Cl)c(C(F)(F)F)c3)cc2)ccn1 [Sorafenib]
effect on midazolam 1'-hydroxylation by CYP3A4 (CYP3A4 [3]): inhibited
effect on midazolam 1'-hydroxylation by CYP3A5 (CYP3A5): activated

Nc1nc(=O)n([C@@H]2CS[C@H](CO)O2)cc1F [emtricitabine]
impact of co-incubation on %triapine remaining after 48 hours [1]: not significantly different
impact of co-incubation on triapine AUC0–48h [1]: not significantly different
impact of co-incubation on triapine half-life [1]: not impacted

NC(=S)NN=Cc1ncccc1N [Triapine, 3-aminopyridine-2-carboxaldehyde thiosemicarbazone]
half-life at 6 μM [4]: 8 h
Cmax ([5]; after intravenous or oral dosing): ~5 µM
total body clearance ([5]; humans, intravenous administration): 57.5 ± 25 L/h
time to reach Cmax ([5]; humans, oral administration): 1.9 ± 1.4 h
urinary excretion ([5]; humans): minimal
half-life at 6 μM (CYP): ~3 h
depletion of triapine ([6]; NADPH-fortified human liver microsomes pH 7.4 in the presence of CYP non-specific inhibitor N-benzyl imidazole (1 mM)): Minimal depletion
triapine remaining intact ([6]; control incubation without either NADPH or microsomes, after 2 h): > 95%
triapine disappeared ([7]; human liver microsomes, phosphate buffer pH 8.4, fortified with NADPH, within 2 h): 17%
depletion of triapine ([7]; pH 8.4, control incubation without NADPH): 9%
depletion of triapine ([7]; pH 8.4, in the presence of FMO inhibitor methimazole (200 μM)): 9%
triapine metabolism in hepatocytes [8]: inhibited
triapine remaining [9]: 100.3%
increase of metabolism of CYP2C19 probe S-mephenytoin (CYP2C19): 20%
triapine depletion [10]: no triapine depletion
metabolism of triapine [11]: did not undergo metabolism

CC(C)=O [acetone]
stimulation of CYP2C9 mediated tolbutamide hydroxylation (CYP2C9): 2–3 fold

O=C(O)CC(O)(CC(=O)O)C(=O)O [citrate]
effect on CYP3A4 catalytic activity (CYP3A4 [12]): stimulated

CC#N [acetonitrile]
stimulation of CYP2C9 mediated tolbutamide hydroxylation (CYP2C9): 2–3 fold

CCN(CC)CCNC(=O)c1c(C)[nH]c(/C=C2\C(=O)Nc3ccc(F)cc32)c1C [sunitinib]
effect on midazolam 1'-hydroxylation by CYP3A4 (CYP3A4 [3]): inhibited
effect on midazolam 1'-hydroxylation by CYP3A5 (CYP3A5): activated
